Results taken from ChEMBL document CHEMBL1201861, “Genomics of Drug Sensitity in Cancer screening data, Wellcome Trust Sanger Institute”.
pIC50: −log10 of the molar value.

Columns and labels:
Experiment in all cases: cells
EKVX = format: functional, cell-based, Homo sapiens; conditions: Homo sapiens, EKVX
Description: SANGER: Inhibition of human EKVX cell growth in a cell viability assay.

RCM-1 = format: functional, cell-based, Homo sapiens; conditions: Homo sapiens, RCM-1
Description: SANGER: Inhibition of human RCM-1 cell growth in a cell viability assay.

L-428 = format: functional, cell-based; conditions: Homo sapiens
Description: SANGER: Inhibition of human L-428 cell growth in a cell viability assay.

HGC-27 = format: functional, cell-based, Homo sapiens; conditions: Homo sapiens, HGC-27
Description: SANGER: Inhibition of human HGC-27 cell growth in a cell viability assay.

HT-1080 = format: functional, cell-based, Homo sapiens; conditions: Homo sapiens, HT-1080
Description: SANGER: Inhibition of human HT-1080 cell growth in a cell viability assay.

DK-MG = format: functional, cell-based, Homo sapiens; conditions: Homo sapiens, DK-MG
Description: SANGER: Inhibition of human DK-MG cell growth in a cell viability assay.

IST-MES1 = format: functional, cell-based, Homo sapiens; conditions: Homo sapiens, IST-MES1
Description: SANGER: Inhibition of human IST-MES1 cell growth in a cell viability assay.

ESS-1 = format: functional, cell-based, Homo sapiens; conditions: Homo sapiens, ESS-1
Description: SANGER: Inhibition of human ESS-1 cell growth in a cell viability assay.

NKM-1 = format: functional, cell-based; conditions: Homo sapiens
Description: SANGER: Inhibition of human NKM-1 cell growth in a cell viability assay.

NCI-H446 = format: functional, cell-based; conditions: Homo sapiens
Description: SANGER: Inhibition of human NCI-H446 cell growth in a cell viability assay.

HLE = format: functional, cell-based, Homo sapiens; conditions: Homo sapiens, HLE
Description: SANGER: Inhibition of human HLE cell growth in a cell viability assay.

NUGC-3 = format: functional, cell-based, Homo sapiens; conditions: Homo sapiens, NUGC-3
Description: SANGER: Inhibition of human NUGC-3 cell growth in a cell viability assay.

HCC1937 = format: functional, cell-based, Homo sapiens; conditions: Homo sapiens, HCC1937
Description: SANGER: Inhibition of human HCC1937 cell growth in a cell viability assay.

KG-1 = format: functional, cell-based; conditions: Homo sapiens
Description: SANGER: Inhibition of human KG-1 cell growth in a cell viability assay.

KM-H2 = format: functional, cell-based; conditions: Homo sapiens
Description: SANGER: Inhibition of human KM-H2 cell growth in a cell viability assay.

CW-2 = format: functional, cell-based, Homo sapiens; conditions: Homo sapiens, CW-2
Description: SANGER: Inhibition of human CW-2 cell growth in a cell viability assay.

NCI-H1993 = format: functional, cell-based, Homo sapiens; conditions: Homo sapiens, NCI-H1993
Description: SANGER: Inhibition of human NCI-H1993 cell growth in a cell viability assay.

K5 = format: functional, cell-based, Homo sapiens; conditions: Homo sapiens, K5
Description: SANGER: Inhibition of human K5 cell growth in a cell viability assay.

D-392MG = format: functional, cell-based, Homo sapiens; conditions: Homo sapiens, D-392MG
SNB-75 = format: functional, cell-based, Homo sapiens; conditions: Homo sapiens, SNB-75
Description: SANGER: Inhibition of human SNB75 cell growth in a cell viability assay.

EFM-19 = format: functional, cell-based, Homo sapiens; conditions: Homo sapiens, EFM-19
Description: SANGER: Inhibition of human EFM-19 cell growth in a cell viability assay.

OE33 = format: functional, cell-based, Homo sapiens; conditions: Homo sapiens, OE33
Description: SANGER: Inhibition of human OE33 cell growth in a cell viability assay.

MFH-ino = format: functional, cell-based; conditions: Homo sapiens
Description: SANGER: Inhibition of human MFH-ino cell growth in a cell viability assay.

SW48 = format: functional, cell-based, Homo sapiens; conditions: Homo sapiens, SW48
Description: SANGER: Inhibition of human SW48 cell growth in a cell viability assay.

NCI-H2405 = format: functional, cell-based, Homo sapiens; conditions: Homo sapiens, NCI-H2405
Description: SANGER: Inhibition of human NCI-H2405 cell growth in a cell viability assay.

SW13 = format: functional, cell-based, Homo sapiens; conditions: Homo sapiens, SW13
Description: SANGER: Inhibition of human SW13 cell growth in a cell viability assay.

DMS-114 = format: functional, cell-based, Homo sapiens; conditions: Homo sapiens, DMS-114
Daoy = format: functional, cell-based, Homo sapiens; conditions: Homo sapiens, Daoy
Description: SANGER: Inhibition of human Daoy cell growth in a cell viability assay.

MMAC-SF = format: functional, cell-based, Homo sapiens; conditions: Homo sapiens, MMAC-SF
Description: SANGER: Inhibition of human MMAC-SF cell growth in a cell viability assay.

RERF-LC-MS = format: functional, cell-based, Homo sapiens; conditions: Homo sapiens, RERF-LC-MS
Description: SANGER: Inhibition of human RERF-LC-MS cell growth in a cell viability assay.

MDA-MB-361 = format: functional, cell-based, Homo sapiens; conditions: Homo sapiens, MDA-MB-361
C32 = format: functional, cell-based, Homo sapiens; conditions: Homo sapiens, C32
Description: SANGER: Inhibition of human C32 cell growth in a cell viability assay.

DBTRG-05MG = format: functional, cell-based, Homo sapiens; conditions: Homo sapiens, DBTRG-05MG
Description: SANGER: Inhibition of human DBTRG-05MG cell growth in a cell viability assay.

NCI-H1304 = format: functional, cell-based; conditions: Homo sapiens
Description: SANGER: Inhibition of human NCI-H1304 cell growth in a cell viability assay.

BFTC-909 = format: functional, cell-based, Homo sapiens; conditions: Homo sapiens, BFTC-909
Description: SANGER: Inhibition of human BFTC-909 cell growth in a cell viability assay.

JEG-3 = format: functional, cell-based, Homo sapiens; conditions: Homo sapiens, JEG-3
Description: SANGER: Inhibition of human JEG-3 cell growth in a cell viability assay.

IA-LM = format: functional, cell-based, Homo sapiens; conditions: Homo sapiens, IA-LM
Description: SANGER: Inhibition of human IA-LM cell growth in a cell viability assay.

MKN-45 = format: functional, cell-based, Homo sapiens; conditions: Homo sapiens, MKN-45
Description: SANGER: Inhibition of human MKN45 cell growth in a cell viability assay.

Mo = format: functional, cell-based; conditions: Homo sapiens
Description: SANGER: Inhibition of human Mo-T cell growth in a cell viability assay.

EGI-1 = format: functional, cell-based, Homo sapiens; conditions: Homo sapiens, EGI-1
Description: SANGER: Inhibition of human EGI-1 cell growth in a cell viability assay.

KP-4 = format: functional, cell-based, Homo sapiens; conditions: Homo sapiens, KP-4; read-out: IC50
Description: SANGER: Inhibition of human KP-4 cell growth in a cell viability assay.

LB996-RCC = format: functional, cell-based; conditions: Homo sapiens
Description: SANGER: Inhibition of human LB996-RCC cell growth in a cell viability assay.

RCC10RGB = format: functional, cell-based, Homo sapiens; conditions: Homo sapiens, RCC10RGB
Description: SANGER: Inhibition of human RCC10RGB cell growth in a cell viability assay.

RD = format: functional, cell-based, Homo sapiens; conditions: Homo sapiens, RD
Description: SANGER: Inhibition of human RD cell growth in a cell viability assay.

MEL-HO = format: functional, cell-based, Homo sapiens; conditions: Homo sapiens, MEL-HO
Description: SANGER: Inhibition of human MEL-HO cell growth in a cell viability assay.

LB2241-RCC = format: functional, cell-based, Homo sapiens; conditions: Homo sapiens, LB2241-RCC
Description: SANGER: Inhibition of human LB2241-RCC cell growth in a cell viability assay.

LS-411N = format: functional, cell-based, Homo sapiens; conditions: Homo sapiens, LS-411N
ATN-1 = format: functional, cell-based; conditions: Homo sapiens
Description: SANGER: Inhibition of human ATN-1 cell growth in a cell viability assay.

KYSE-140 = format: functional, cell-based, Homo sapiens; conditions: Homo sapiens, KYSE-140
Description: SANGER: Inhibition of human KYSE-140 cell growth in a cell viability assay.

SW1088 = format: functional, cell-based, Homo sapiens; conditions: Homo sapiens, SW1088
Description: SANGER: Inhibition of human SW1088 cell growth in a cell viability assay.

LB373-MEL-D = format: functional, cell-based, Homo sapiens; conditions: Homo sapiens, LB373-MEL-D
Description: SANGER: Inhibition of human LB373-MEL-D cell growth in a cell viability assay.

## COC(=O)CNC(=O)C(=O)OC
EKVX
  pIC50: 3.29
RCM-1
  pIC50: 2.53
L-428
  pIC50: 3.16
HGC-27
  pIC50: 3.73
HT-1080
  pIC50: 3.38
DK-MG
  pIC50: 3.28
IST-MES1
  pIC50: < 2.40
ESS-1
  pIC50: 3.70
NKM-1
  pIC50: 3.90
NCI-H446
  pIC50: 3.19
HLE
  pIC50: 4.24
NUGC-3
  pIC50: 2.83
HCC1937
  pIC50: 3.05
KG-1
  pIC50: 4.09
KM-H2
  pIC50: < 2.40
CW-2
  pIC50: < 2.40
NCI-H1993
  pIC50: 3.48
K5
  pIC50: 3.80
D-392MG
  pIC50: 2.80
SNB-75
  pIC50: 3.36
EFM-19
  pIC50: 2.97
OE33
  pIC50: 3.38
MFH-ino
  pIC50: 3.19
SW48
  pIC50: 2.70
NCI-H2405
  pIC50: 3.58
SW13
  pIC50: 3.19
DMS-114
  pIC50: < 2.40
Daoy
  pIC50: 3.61
MMAC-SF
  pIC50: 3.06
RERF-LC-MS
  pIC50: 2.78
MDA-MB-361
  pIC50: 2.77
C32
  pIC50: < 2.40
DBTRG-05MG
  pIC50: 3.51
NCI-H1304
  pIC50: 3.27
BFTC-909
  pIC50: 3.60
JEG-3
  pIC50: 3.04
IA-LM
  pIC50: 3.82
MKN-45
  pIC50: < 2.40
Mo
  pIC50: 2.73
EGI-1
  pIC50: 3.48
KP-4
  pIC50: 2.74
LB996-RCC
  pIC50: 5.18
RCC10RGB
  pIC50: 2.98
RD
  pIC50: 3.16
MEL-HO
  pIC50: 2.44
LB2241-RCC
  pIC50: 3.27
LS-411N
  pIC50: < 2.40
ATN-1
  pIC50: 3.22
KYSE-140
  pIC50: 2.79
SW1088
  pIC50: 2.57
LB373-MEL-D
  pIC50: 3.15

## COc1cc([C@@H]2c3cc4c(cc3[C@@H](O[C@@H]3O[C@@H]5CO[C@@H](C)O[C@H]5[C@H](O)[C@H]3O)[C@H]3COC(=O)[C@H]23)OCO4)cc(OC)c1O [ETOPOSIDE]
EKVX
  pIC50: < 4.80
RCM-1
  pIC50: < 4.80
L-428
  pIC50: 5.52
HGC-27
  pIC50: 6.99
HT-1080
  pIC50: 6.96
DK-MG
  pIC50: < 4.80
IST-MES1
  pIC50: < 4.80
ESS-1
  pIC50: 6.28
NKM-1
  pIC50: 6.37
NCI-H446
  pIC50: < 4.80
HLE
  pIC50: 6.27
NUGC-3
  pIC50: 6.01
HCC1937
  pIC50: 4.80
KG-1
  pIC50: 5.01
KM-H2
  pIC50: 5.78
CW-2
  pIC50: < 4.80
NCI-H1993
  pIC50: < 4.80
K5
  pIC50: < 4.80
D-392MG
  pIC50: < 4.80
SNB-75
  pIC50: 4.96
EFM-19
  pIC50: 6.06
OE33
  pIC50: 5.29
MFH-ino
  pIC50: 6.12
SW48
  pIC50: 6.06
NCI-H2405
  pIC50: 5.61
SW13
  pIC50: 5.74
DMS-114
  pIC50: < 4.80
Daoy
  pIC50: 6.43
MMAC-SF
  pIC50: 5.16
RERF-LC-MS
  pIC50: 5.60
MDA-MB-361
  pIC50: < 4.80
C32
  pIC50: < 4.80
DBTRG-05MG
  pIC50: 5.58
NCI-H1304
  pIC50: 5.64
BFTC-909
  pIC50: 5.93
JEG-3
  pIC50: 5.52
IA-LM
  pIC50: 5.46
MKN-45
  pIC50: 5.73
Mo
  pIC50: < 4.80
EGI-1
  pIC50: 5.49
KP-4
  pIC50: 6.38
LB996-RCC
  pIC50: < 4.80
RCC10RGB
  pIC50: < 4.80
RD
  pIC50: 5.32
MEL-HO
  pIC50: 6.14
LB2241-RCC
  pIC50: < 4.80
LS-411N
  pIC50: 6.03
ATN-1
  pIC50: 6.69
KYSE-140
  pIC50: 5.31
SW1088
  pIC50: < 4.80
LB373-MEL-D
  pIC50: < 4.80

## O=c1cc(-c2cccc3c2Sc2ccccc2S3)oc(N2CCOCC2)c1 [KU-55933]
EKVX
  pIC50: < 5.00
RCM-1
  pIC50: < 5.00
L-428
  pIC50: < 5.00
HGC-27
  pIC50: < 5.00
HT-1080
  pIC50: < 5.00
DK-MG
  pIC50: < 5.00
IST-MES1
  pIC50: < 5.00
ESS-1
  pIC50: < 5.00
NKM-1
  pIC50: < 5.00
NCI-H446
  pIC50: < 5.00
HLE
  pIC50: < 5.00
NUGC-3
  pIC50: < 5.00
HCC1937
  pIC50: < 5.00
KG-1
  pIC50: < 5.00
KM-H2
  pIC50: < 5.00
CW-2
  pIC50: < 5.00
NCI-H1993
  pIC50: < 5.00
K5
  pIC50: < 5.00
D-392MG
  pIC50: < 5.00
SNB-75
  pIC50: < 5.00
EFM-19
  pIC50: < 5.00
OE33
  pIC50: < 5.00
MFH-ino
  pIC50: < 5.00
SW48
  pIC50: < 5.00
NCI-H2405
  pIC50: < 5.00
SW13
  pIC50: < 5.00
DMS-114
  pIC50: < 5.00
Daoy
  pIC50: < 5.00
MMAC-SF
  pIC50: < 5.00
RERF-LC-MS
  pIC50: < 5.00
MDA-MB-361
  pIC50: < 5.00
C32
  pIC50: < 5.00
DBTRG-05MG
  pIC50: < 5.00
NCI-H1304
  pIC50: < 5.00
BFTC-909
  pIC50: < 5.00
JEG-3
  pIC50: < 5.00
IA-LM
  pIC50: < 5.00
MKN-45
  pIC50: < 5.00
Mo
  pIC50: < 5.00
EGI-1
  pIC50: < 5.00
KP-4
  pIC50: < 5.00
LB996-RCC
  pIC50: < 5.00
RCC10RGB
  pIC50: < 5.00
RD
  pIC50: < 5.00
MEL-HO
  pIC50: < 5.00
LB2241-RCC
  pIC50: < 5.00
LS-411N
  pIC50: < 5.00
ATN-1
  pIC50: < 5.00
KYSE-140
  pIC50: < 5.00
SW1088
  pIC50: < 5.00
LB373-MEL-D
  pIC50: < 5.00

## Cc1cnc(-c2cnc(NCCNc3ccc(C#N)cn3)nc2-c2ccc(Cl)cc2Cl)[nH]1 [LADUVIGLUSIB]
EKVX
  pIC50: < 5.59
RCM-1
  pIC50: < 5.59
L-428
  pIC50: < 5.59
HGC-27
  pIC50: < 5.59
HT-1080
  pIC50: < 5.59
DK-MG
  pIC50: < 5.59
IST-MES1
  pIC50: < 5.59
ESS-1
  pIC50: < 5.59
NKM-1
  pIC50: < 5.59
NCI-H446
  pIC50: < 5.59
HLE
  pIC50: < 5.59
NUGC-3
  pIC50: < 5.59
HCC1937
  pIC50: < 5.59
KG-1
  pIC50: < 5.59
KM-H2
  pIC50: < 5.59
CW-2
  pIC50: < 5.59
NCI-H1993
  pIC50: < 5.59
K5
  pIC50: < 5.59
D-392MG
  pIC50: < 5.59
SNB-75
  pIC50: < 5.59
EFM-19
  pIC50: < 5.59
OE33
  pIC50: < 5.59
MFH-ino
  pIC50: < 5.59
SW48
  pIC50: < 5.59
NCI-H2405
  pIC50: < 5.59
SW13
  pIC50: < 5.59
DMS-114
  pIC50: < 5.59
Daoy
  pIC50: < 5.59
MMAC-SF
  pIC50: < 5.59
RERF-LC-MS
  pIC50: < 5.59
MDA-MB-361
  pIC50: < 5.59
C32
  pIC50: < 5.59
DBTRG-05MG
  pIC50: < 5.59
NCI-H1304
  pIC50: < 5.59
BFTC-909
  pIC50: < 5.59
JEG-3
  pIC50: < 5.59
IA-LM
  pIC50: < 5.59
MKN-45
  pIC50: < 5.59
Mo
  pIC50: < 5.59
EGI-1
  pIC50: < 5.59
KP-4
  pIC50: < 5.59
LB996-RCC
  pIC50: < 5.59
RCC10RGB
  pIC50: < 5.59
RD
  pIC50: < 5.59
MEL-HO
  pIC50: < 5.59
LB2241-RCC
  pIC50: < 5.59
LS-411N
  pIC50: < 5.59
ATN-1
  pIC50: < 5.59
KYSE-140
  pIC50: < 5.59
SW1088
  pIC50: < 5.59
LB373-MEL-D
  pIC50: < 5.59
